From patent US8076310B2, “Phosphonate nucleosides useful as active ingredients in pharmaceutical compositions for the treatment of viral infections, and intermediates for their production” (K.U.Leuven Research & Development, priority 2004, dated 2011)

Target: T1, HIV reverse transcriptase (Human immunodeficiency virus type 1 group M subtype B, UniProt P04585)
T1 construct: 0.025 U/μL HIV reverse transcriptase
Assay: Steady-state kinetics of nucleotide incorporation in a DNA hybrid by HIV reverse transcriptase
Format: biochemical
Details: 0.025 U/μL HIV reverse transcriptase, 250 nM primer/template, average of three determinations
Procedure: Determination of Km and Kcat values for the incorporation of dATP and PMDTApp in a DNA hybrid was carried out under steady-state conditions as described by Creighton et al. in Methods in Enzymology (1995) 262:232-256. […] Results given below are the average of three independent determinations. The reaction mixture contained 250 nM primer/template complex 0.025 U/μL HIV reverse transcriptase, and the triphosphate nucleotides to be incorporated (dATP and PMDTApp, respectively). The template sequence and the primer sequence used in this experiment are shown below. The reaction was quenched after 1, 2 and 3 minutes by adding a double volume of stop solution (90% formamide, 0.05% bromophenol blue, 0.05% xylene cyanol and 50 mM EDTA). Samples were analyzed by gel electrophoresis on a 16% polyacrylamide ureum gel in TBE buffer (89 mM Tris-borate, 2 mM EDTA buffer, pH 8.3) after heating the samples for 5 minutes at 70° C. Products were visualised by phosphorimaging. The amount of radioactivity in the bands corresponding to the products of the enzymatic reactions was determined using the Optiquant Image Analysis Software (Packard). Rate profiles were determined using GraphPad Prism® software.

Nc1ncnc2c1ncn2[C@H]1C[C@H](O)[C@@H](COP(=O)(O)OP(=O)(O)OP(=O)(O)O)O1 [dATP, deoxy-adenosine triphosphate]
Kcat: 0.66 min − 1
Km: 100 nM
